“Also recorded” adds a separate entry of the source.
How the values were obtained:
[1] = Parallel plate rheometry of crosslinked SLac peptide hydrogels; type: physicochemical; conditions: drug as crosslinker of 1 w % SLac hydrogel, pH 7.4
Description: Peptide solutions were made by dissolving lyophilized SLac in 298 mM sucrose-water at a concentration of 2 w %, pH 7.4. Hydrogels were constructed by addition of Hank's balanced salt solution (HBSS) at a 1:1 ratio. Multivalent drugs were added at similar concentrations, approximating physiological doses, to SLac solutions with final concentrations of: SLac—0.4 mM (1 w %); concentration of positive lysine charges—0.8 mM; suramin—3.8 mM (0.5 w %) or 0.38 mM (0.05 w %); trypan blue—3.2 mM (0.2 w %); heparin ˜2.78 mM (5 w %); clodronate disodium—3.4 mM; phosphate buffer—38 mM and 5 mM; and 0.9% saline. Negatively charged polyvalent ions in buffer solution facilitated intermolecular ionic interactions with lysine residues, crosslinking the hydrogel. Rheological behavior of peptide hydrogels was determined using an 8 mm parallel plate geometry at a gap of 250 μm. 50 μL of hydrogel was constructed and, within 30 min, placed on stainless steel plates of a rheometer. A frequency sweep (0.1-100 Hz, at constant 1% strain), strain sweep (0-1000%/strain, at 1 Hz) and shear recovery (1% strain for 30 min, 100% strain for 60 s, 1% strain for 30 min) were performed. We ensured the phase angle δ≦90° to ensure no slipping.

[2] = Suramin drug loading and release from MDP hydrogel into HBSS; type: physicochemical
Description: Suramin was dissolved in 0.9% saline and loaded into MDP hydrogel (100 μL of SLac dissolved in 298 mM sucrose+100 μL of drug/saline) in microcentrifuge tubes. 1 mL of release media (HBSS) was added to gels placed in a humidified 5% CO2 cell culture incubator at 37° C. 200 μL aliquots of release media were assayed, with replenishment, daily for 30 days. To determine short term release kinetics, in a separate setup, aliquots were assayed at 1, 2, 4, 8, 12, 24, 48 and 72 hr. Concentration of drug was determined using UV spectrophotometry at 313 nm, n=5. Mass release data were plotted as a function of cumulative release of drug in Sigmaplot. Drug release was modeled using the Korsmeyer-Peppas equation.

release exponent (t) of Korsmeyer-Peppas model ([2]; 1 mg/mL loaded gels): ≈ 1.0
mechanism of release ([2]; 10 mg/mL loaded gels): diffusion dependent
release exponent (t) of Korsmeyer-Peppas model ([2]; 10 mg/mL loaded gels): ≈ 0.5
Maximum cumulative suramin concentration ([2]; high loading): 0.6 mg/mL
Maximum cumulative suramin concentration ([2]; low loading): 0.04 mg/mL
drug release ([2]; over a 20 day period, from SLac-based scaffolds): approximately 50%
retention of drug ionically cross-linked ([2]; over a period of 30 days): up to 40%
drug releasing from hydrogel scaffolds ([2]; over the first 30 days, depending on loading concentration): 40-60%
Structure (SMILES): Cc1ccc(C(=O)Nc2ccc(S(=O)(=O)O)c3cc(S(=O)(=O)O)cc(S(=O)(=O)O)c23)cc1NC(=O)c1cccc(NC(=O)Nc2cccc(C(=O)Nc3cc(C(=O)Nc4ccc(S(=O)(=O)O)c5cc(S(=O)(=O)O)cc(S(=O)(=O)O)c45)ccc3C)c2)c1 [suramin]
mechanical strength, storage modulus G′ / loss modulus G″ [1]: order of magnitude increase in mechanical strength with increase in concentration; also recorded: an order of magnitude higher G′/G″
mechanism of release ([2]; 1 mg/mL loaded gels): non-Fickian diffusion/Case II transport dependent

— patent publication US20170172953A1, “SELF-ASSEMBLING DRUG DELIVERY VEHICLES WITH IONICALLY CROSS-LINKED DRUGS” (WILLIAM MARSH RICE UNIVERSITY, priority 2014, published 2017)
